Measurements from patent US20150218141A1, “SUBSTITUTED CARBAMATE COMPOUNDS” (HOFFMANN-LA ROCHE INC, priority 2012, published 2015).
Structures can show the parent of a compound that is named as a salt.

Each compound was assayed against T1, hTRPA1 (Homo sapiens, UniProt O75762) (assay: IC50 determination, dose response calcium flux (FLIPR) assay, ChanTest hTRPA1-CHO stably transfected cell line). Conditions: CHO-K1 Tet-On hTRPA1 cells, 30' preincubation, agonist cinnamaldehyde final 100 uM.
T1 construct: host or cells: CHO-K1 Tet-On, Clone 20 (Chinese Hamster Ovary cells, inducible expression)
Format: cell-based
Experimental: IC50 Determination of Exemplified Compounds Dose Response Assay: ChanTest hTRPA1-CHO Stably Transfected Cell Line
CHO-K1 Tet-On_HOMSA_TRPA1_Clone—20
Growth Media for CHO-K1 Tet-On_HOMSA_TRPA1_Clone—20 • Ham's F-12 with 10% tetracycline-free FBS • 1× penicillin-streptomycin • 1× glutamax • 0.01 mg/ml Blasticidin • 0.40 mg/ml Zeocin • The cell line doubling rate was ˜15 hours. […] Experiments were run at 24 hours post induction.
Plating Conditions CHOK1/TRPA1 Cells: • Harvested cells with 0.025% trypsin/EDTA. • Resuspended cells in growth media without selection antibiotics. • Measured cell density and diluted to 2.4×10^5 cells/ml in media containing 1 ug/ml Doxycycline Plate 25 ul/well into 384 well black/clear tissue culture-treated plates. • Incubated overnight at 37° C.
Reagents: • Replacement Buffer: Hank's Balanced Salt Solution, 20 mM HEPES along with 0.005% BSA and 2× Probenecid • Dye Loading Buffer: Cal-3 NW Calcium dye was prepared by dissolving the contents of one vial with […] Hank's Balanced Salt Solution containing 20 mM HEPES. • Control compounds for CHOK1/TRPA1 cells: AP-18, stock 10 mM, prepare 3.5× compound dilution in a Compound Buffer (HBSS/20 mM HEPES/0.005% BSA)—final concentration 10 uM.
Preparation of Cinnamaldehyde (Agonist Addition):
• Specific gravity=1.046 gm/cc • 1.32 gm/1.046 gm/cc=1.26 ml of stock • Add 1.74 ml DMSO=3.3 M stock • Working solution 4.5× (final 100 uM in Compound Buffer: HBSS/20 mM HEPES/0.005% BSA)
Compounds dilutions were prepared from 5 or 10 mM stock (100% DMSO): • Adjustments of volumes and concentrations were made at time of titration to reflect desired final assay concentrations. • Compounds were tested at either 20 μM three folds dilution 11 steps out or 30 μM two folds dilution 11 steps out. • 3 μl of diluted compound were transferred into Weidmann 384-well plate in duplicates side-by-side.
Compound plates were resuspended with 100 ul of HBSS/20 mM HEPES/0.005% BSA buffer (Compound Buffer):
Growth media was removed from the cell plates (20 ul) and 20 ul of the Replacement Buffer was added followed by addition of 25 ul of diluted dye. All three steps were performed using a Plate Washer BioTek 407. The plates were then incubated for 30′ at RT.
After incubation, both the cell and compound plates were brought to the FLIPR and 20 ul of the diluted compounds/antagonist/bk were transferred to the cell plates by the FLIPR. Plates were then incubated for 30′ at room temperature. After 30′ incubation, plates were returned to the FLIPR and 20 ul of 4.5× Cinnamaldehyde was added to the cell plates. During the compound addition as well as agonist addition, fluorescence readings were taken simultaneously from all 384 wells of the cell plate every 1.5 seconds. Five readings were taken to establish a stable baseline, then 20 ul of sample was rapidly (30 ul/sec) and simultaneously added to each well of the cell plate. The fluorescence was continuously monitored before, during and after sample/agonist addition for a total elapsed time of 100 seconds (compound addition) and 120 seconds (agonist addition). Responses (increase in peak fluorescence) in each well following agonist addition was determined. The initial fluorescence reading from each well, prior to ligand stimulation, was used a zero baseline value for the data from that well.

T1 sequence (O75762 whole entry): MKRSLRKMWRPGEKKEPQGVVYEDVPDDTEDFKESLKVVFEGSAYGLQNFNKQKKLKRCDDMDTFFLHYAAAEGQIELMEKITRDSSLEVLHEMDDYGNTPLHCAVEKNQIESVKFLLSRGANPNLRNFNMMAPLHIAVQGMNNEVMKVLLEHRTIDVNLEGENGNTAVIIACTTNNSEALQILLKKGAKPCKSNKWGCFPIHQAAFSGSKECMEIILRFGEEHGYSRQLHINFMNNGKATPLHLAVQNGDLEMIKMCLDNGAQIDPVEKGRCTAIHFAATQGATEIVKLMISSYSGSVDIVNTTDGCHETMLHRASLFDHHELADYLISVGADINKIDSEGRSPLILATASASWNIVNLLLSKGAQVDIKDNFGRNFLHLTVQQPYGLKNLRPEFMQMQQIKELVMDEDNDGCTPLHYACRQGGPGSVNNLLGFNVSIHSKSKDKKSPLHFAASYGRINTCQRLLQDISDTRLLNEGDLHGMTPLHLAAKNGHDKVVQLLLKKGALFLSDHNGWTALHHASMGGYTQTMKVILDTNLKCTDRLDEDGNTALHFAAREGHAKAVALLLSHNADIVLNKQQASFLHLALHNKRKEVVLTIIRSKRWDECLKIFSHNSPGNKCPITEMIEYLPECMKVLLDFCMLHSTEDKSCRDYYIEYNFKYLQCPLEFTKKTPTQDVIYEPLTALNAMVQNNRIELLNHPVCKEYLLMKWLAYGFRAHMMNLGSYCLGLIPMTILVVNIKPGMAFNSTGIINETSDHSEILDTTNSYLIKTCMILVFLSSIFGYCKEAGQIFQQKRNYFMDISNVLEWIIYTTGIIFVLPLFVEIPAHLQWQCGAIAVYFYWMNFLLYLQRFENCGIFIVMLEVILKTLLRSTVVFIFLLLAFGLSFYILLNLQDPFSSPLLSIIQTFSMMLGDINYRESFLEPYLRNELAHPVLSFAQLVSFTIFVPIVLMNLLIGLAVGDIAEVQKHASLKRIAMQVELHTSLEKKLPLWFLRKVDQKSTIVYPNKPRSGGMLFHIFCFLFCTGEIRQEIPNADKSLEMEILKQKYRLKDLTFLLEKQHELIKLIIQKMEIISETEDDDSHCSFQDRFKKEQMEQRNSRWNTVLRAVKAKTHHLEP

Row | Compound | IC50 [nM]
1 | O=C(Nc1ccc(Cl)cn1)O[C@@H](CN1CCC[C@H](c2cccc(C(F)(F)F)c2)C1)C(F)(F)F [Example 58, (5-Chloropyridin-2-yl)-carbamic acid (S)-2,2,2-trifluoro-1-[(R)-3-(3-trifluoromethyl-phenyl)-piperidin-1-ylmethyl]-ethyl ester hydrochloride] | 174
2 | O=C(Nc1ccc(Cl)cc1)O[C@@H](CN1CCCC(Oc2ccc(F)cc2)C1)C(F)(F)F (stereo partly drawn) [Example 48, (4-Chlorophenyl)-carbamic acid (S)-1-[3-(4-fluorophenoxy)-piperidin-1-ylmethyl]-2,2,2-trifluoroethyl ester hydrochloride] | 147
3 | O=C(Nc1ccc(Cl)cc1)OC(CN1CCCC(C(F)(F)F)C1)C(F)(F)F (stereo not drawn) [Example 15, (4-chlorophenyl)-carbamic acid 2,2,2-trifluoro-1-(3-trifluoromethylpiperidin-1-ylmethyl)-ethyl ester] | 563
4 | O=C(C[C@@H](CN1CCC[C@@H](c2cccc(C(F)(F)F)c2)C1)C(F)(F)F)Nc1ccc(Cl)cc1 (racemic) [Example 26, Racemic (S)—N-(4-Chloro-phenyl)-4,4,4-trifluoro-3-[(S)-3-(3-trifluoromethyl-phenyl)-piperidin-1-ylmethyl]-butyramide] | 1400
5 | O=C(Nc1ccc(Cl)cn1)O[C@@H](CN1CCCC(c2cccc(C(F)(F)F)c2)C1)C(F)(F)F (stereo partly drawn) [Example 59, (5-Chloropyridin-2-yl)-carbamic acid (S)-2,2,2-trifluoro-1-[3-(3-trifluoromethylphenyl)-piperidin-1-ylmethyl]-ethyl ester hydrochloride] | 270
6 | O=C(C[C@@H](CN1CCC[C@H](c2cccc(C(F)(F)F)c2)C1)C(F)(F)F)Nc1ccc(Cl)cc1 (racemic) [Example 25, Racemic (S)—N-(4-Chlorophenyl)-4,4,4-trifluoro-3-[(R)-3-(3-trifluoromethylphenyl)-piperidin-1-ylmethyl]-butyramide] | 135
7 | O=C(Nc1ccc(Cl)cc1)OC(CN1CCCC(C2CCCCC2)C1)C(F)(F)F (stereo not drawn) [Example 18, (4-Chlorophenyl)-carbamic acid 1-(3-cyclohexylpiperidin-1-ylmethyl)-2,2,2-trifluoroethyl ester] | 883
8 | COc1cccc(CC2CCCN(C[C@H](OC(=O)Nc3ccc(Cl)cc3)C(F)(F)F)C2)c1 (stereo partly drawn) [Example 12, (4-Chlorophenyl)-carbamic acid (S)-2,2,2-trifluoro-1-[3-(3-methoxybenzyl)-piperidin-1-ylmethyl]-ethyl ester hydrochloride salt (1:1)] | 550
9 | CS(=O)(=O)c1cccc(C2CCCN(C[C@H](OC(=O)Nc3ccc(Cl)cc3)C(F)(F)F)C2)c1 (stereo partly drawn) [Example 62, (4-Chlorophenyl)-carbamic acid (S)-2,2,2-trifluoro-1-[3-(3-methanesulfonylphenyl)-piperidin-1-ylmethyl]-ethyl ester hydrochloride] | 1160
10 | COc1cccc([C@H]2CCCN(C[C@H](OC(=O)Nc3ccc(Cl)cc3)C(F)(F)F)C2)c1 [Example 3, (4-Chlorophenyl)-carbamic acid (S)-2,2,2-trifluoro-1-[(R)-3-(3-methoxyphenyl)-piperidin-1-ylmethyl]-ethyl ester hydrochloride] | 121
11 | O=C(Nc1ccc(Cl)cc1)O[C@@H](CN1CCC[C@H](Oc2ccncc2)C1)C(F)(F)F (racemic) [Example 22b, (4-chlorophenyl)-carbamic acid 2,2,2-trifluoro-1-[(S)-3-(pyridin-4-yloxy)-piperidin-1-ylmethyl]-ethyl ester] | 1760
12 | O=C(Nc1ccc(Cl)cc1)O[C@@H](CN1CCCC(Oc2cccc(OC(F)(F)F)c2)C1)C(F)(F)F (stereo partly drawn) [Example 50, (4-Chlorophenyl)-carbamic acid (S)-2,2,2-trifluoro-1-[3-(3-trifluoromethoxyphenoxyl)piperidin-1-ylmethyl]-ethyl ester hydrochloride] | 55.1
